Experimental data reported in patent US9936701B2, “Herbicidal compounds” (Syngenta Participations AG, priority 2013, dated 2018).

How the values were obtained:
[1] = system: a variety of test species; test: Pre-emergence herbicidal activity (glasshouse, sprayed one day after sowing, evaluated after 13 days); assay type: in vivo; set-up: key: 5=total damage to plant; 0=no damage to plant; settings: application pre-emergence, rate 1000 g/Ha, scale 0-5
Outline: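 Seeds sown in standard soil in pots, sprayed one day later (pre-emergence) with aqueous solution from acetone/water (50:50) formulation with 0.5% Tween 20. Glasshouse at 24/16 °C day/night, 14 h light, 65% humidity, watered twice daily. Damage scored after 13 days, 0 (none) to 5 (total).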

[2] = system: a variety of test species; test: Post-emergence herbicidal activity (glasshouse, sprayed after 8 days cultivation, evaluated after 13 days); assay type: in vivo; set-up: key: 5=total damage to plant; 0=no damage to plant; settings: rate 1000 g/Ha, scale 0-5
Outline: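 Seeds were sown in standard soil and cultivated for 8 days under controlled glasshouse conditions. Seedlings were then sprayed with an aqueous solution of the formulated compound containing 0.5% Tween 20. Injury was rated after a further 13 days, where 5 indicated total damage.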

Compound	Pre-emergence herbicidal damage score, ABUTH [1]	Pre-emergence herbicidal damage score, ALOMY [1]	Pre-emergence herbicidal damage score, AMARE [1]	Pre-emergence herbicidal damage score, ECHCG [1]	Pre-emergence herbicidal damage score, SETFA [1]	Pre-emergence herbicidal damage score, ZEAMX [1]	ABUTH (Abutilon theophrasti) damage score, application post-emergence [2]	ALOMY (Alopecurus myosuroides) damage score, application post-emergence [2]	AMARE (Amaranthus retroflexus) damage score, application post-emergence [2]	ECHCG (Echinochloa crus-galli) damage score, application post-emergence [2]	SETFA (Setaria faberi) damage score, application post-emergence [2]	ZEAMX (Zea mays) damage score, application post-emergence [2]
C=C(C)CNC1=C(Cl)C(=O)N(c2cc(C(C)(C)C)on2)C1O (centres unmarked) [C3]	5	3	5	4	3	2	5	4	5	5	5	2
CC(C)(C)c1cc(N2C(=O)C(Cl)=C(NCC3CC3)C2O)no1 (centres unmarked) [C4]	5	2	5	5	4	3	5	5	5	5	5	4
C#CCNC1=C(Cl)C(=O)N(c2cc(C(C)(C)C)on2)C1O (centres unmarked) [C5, 1-(5-tert-butylisoxazol-3-yl)-4-chloro-2-hydroxy-3-(prop-2-ynylamino)-2H-pyrrol-5-one]	5	3	5	5	4	3	5	5	5	5	5	5
CC(C)(C)c1cc(N2C(=O)C(Cl)=C(N)C2O)no1 (centres unmarked) [C6, 3-amino-1-(5-tert-butylisoxazol-3-yl)-4-chloro-2-hydroxy-2H-pyrrol-5-one]	5	4	5	5	4	4	3	5	5	5	5	5
CC(C)(C)c1cc(N2C(=O)C(Cl)=C(NC3CCC3)C2O)no1 (centres unmarked) [C9]	0	0	3	0	0	0	0	0	2	0	0	0
CC(C)(C)CNC1=C(Cl)C(=O)N(c2cc(C(C)(C)C)on2)C1O (centres unmarked) [C10]	0	0	2	0	0	0	0	0	0	0	0	0
COCCNC1=C(Cl)C(=O)N(c2cc(C(C)(C)C)on2)C1O (centres unmarked) [C11]	4	3	5	4	4	2	5	4	5	5	5	1
CCOCCNC1=C(Cl)C(=O)N(c2cc(C(C)(C)C)on2)C1O (centres unmarked) [C12]	4	1	4	2	3	0	5	3	4	4	4	0
CC(=O)OC1C(N)=C(Cl)C(=O)N1c1cc(C(C)(C)C)on1 (centres unmarked) [C13]	5	4	5	5	4	4	5	5	5	5	5	5
COC1=C(C)CN(c2cc(C(C)(C)C)on2)C1=O [D9]		4	5	4	4			5	5	5	5	
COC1=C(OC)C(O)N(c2cc(C(C)(C)C)on2)C1=O (centres unmarked) [F1]	5	3	5	4	4	2	5	4	5	5	5	5
COC1=C(C)C(=O)N(c2cc(C(C)(C)C)on2)C1O (centres unmarked) [G1]	5	3	5	5	4	1	5	5	5	5	5	5
COC1=C(C)C(=O)N(c2cc(C)on2)C1O (centres unmarked) [G2]	5	1	5	3	3	1	3	2	5	2	1	1
COCC(C)(C)c1cc(N2C(=O)C(C)=C(OC)C2O)no1 (centres unmarked) [G3]	5	3	5	5	5	4	5	4	3	5	5	5
